Assay results as given in patent US11130780B2, “Inhibitors of growth factor activation enzymes” (Washington University, priority 2015, dated 2021).
Read-outs that look alike come from different tables or passages of the source. Positions of bridges follow the written chain, without caps; N, C: chain ends. Residues, ends and D or L forms follow the SMILES beside them. *: point of attachment. X2 = N=C(N)NCCC[C@H](N*)C(=O)c1nccs1

Columns and labels:
Format in all cases: biochemical
[1] = molecular target: T1, HGFA (Homo sapiens, UniProt Q04756); assay: Fluorescent kinetic enzyme inhibitor assay of HGFA; settings: read-out: HGFA Ki
T1 construct: His6 tag (N); seven amino acid spacer and seven amino acid TEV cleavage site (N); Honey Bee melittin signal peptide (N); made in house; host or cells: High 5 insect cells (baculovirus; virus raised in Sf9)
T1 sequence (Q04756 373-655): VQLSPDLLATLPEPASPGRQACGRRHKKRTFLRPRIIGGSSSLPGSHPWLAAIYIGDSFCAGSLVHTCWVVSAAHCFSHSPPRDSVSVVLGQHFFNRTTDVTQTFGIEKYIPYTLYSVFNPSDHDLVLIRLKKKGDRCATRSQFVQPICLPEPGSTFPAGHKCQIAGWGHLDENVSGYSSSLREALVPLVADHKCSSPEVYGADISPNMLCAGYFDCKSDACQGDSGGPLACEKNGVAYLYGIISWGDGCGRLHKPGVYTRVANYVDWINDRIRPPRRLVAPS
Description: Using primers identified as SEQ ID NO 1, SEQ ID NO 2, and standard PCR protocols, the nucleotide sequence encoding amino acids 373-655 of HGFA was synthesized. This PCR product was cloned into the SfoI-HindIII sites of a modified pFastBac HT baculovirus expression vector (Addgene, Cambridge, Mass.). This vector contains a six amino His tag followed by a seven amino spacer and a seven amino acid TEV cleavage site placed immediately downstream of the Honey Bee melittin signal peptide. Using a modified Bac to Bac Expression System (Life Technologies, Carlsbad, Calif.), recombinant HGFA bacmids were obtained by transforming DH10Bac Escherichia coli cells. To obtain HGFA containing baculovirus, purified bacmids were transfected into Sf9 insect cells. After 5 days in culture at 27° C., media was harvested from transfected Sf9 cells. This media was used to prepare baculovirus infected insect cells (BIICs). These BIIICs were used to infect High 5 insect cells. Four days post infection, media was harvested and recombinant protein prepared as follows. Media was chilled to 4° C. and spun at 4000×g for 20 minutes (all subsequent steps were performed at 4° C. unless noted). Clarified media was passed first through a Whatman GF/B 1 um (#1821-047, GE Healthcare Life Sciences, Piscataway, N.J.) and then a 0.22 um PES membrane (#99955, TPP Techno Plastic Products AG, Trasadingen, Switzerland) and then concentrated using a Pall Centramate tangential flow system and Centramate T-series Cassette (#OS010T12, Pall Corporation, Port Washington, N.Y.). Concentrated media was then buffer exchanged in two steps, five volumes of 50 mM Na-phosphate, 500 mM NaCl, pH 6.2, followed by five volumes of 50 mM Na-phosphate, 500 mM NaCl, pH 7.5. The concentrated and buffered exchanged insect cell media was again filtered as above and made 25 mM imidazole (#1202, Sigma-Aldrich, St. Louis, Mo.) and was mixed with nickel agarose beads (#H-321-25, Gold Biotechnology, Inc., St. Louis Mo.). After mixing this slurry for 12 hours, nickel agarose beads were allowed to settle by gravity and then loaded into a column. Beads were washed with buffer (25 mM Na-phosphate, 500 mM NaCl, 25 mM imidazole, pH 8) and the bound protein eluted using (25 mM Na-phosphate, 500 mM NaCl, 250 mM imidazole, pH 8). Using a Amicon Ultra-4 Centrifugal filters (#UFC801008, Merck Millipore, Ltd., Tullagreen, Ireland), peak protein fractions were concentrated and run over a Superdex-200 10/300 GL column (GE Healthcare Life Sciences, Piscataway, N.J.) in 10 mM Tris, 200 mM NaCl, 0.2 mM EDTA, pH 8. HGFA containing fractions were pooled, concentrated, made 50% glycerol, and stored at minus 20° C. Protein was quantitated using a modified Lowry protein assay (#500-0006, Bio-Rad Laboratories, Hercules, Calif.).
Inhibitors (11-pt serial dilutions, 0-20 μM final concentration in reaction) were serially diluted in DMSO (2% DMSO final concentration) and then mixed with either recombinant serine protease domain of HGFA [Z. Han, P. K. Harris, D. E. Jones, R. Chugani, T. Kim, M. Agarwal, W. Shen, S. A. Wildman, J. W. Janetka, Acs Med Chem Lett 2014, 5, 1219-1224], matriptase (Charles Craik, UCSF) or hepsin* (#4776-SE-010, R&D Systems, Minneapolis, Minn.) in black 384 well plates (Corning #3575. Corning, N.Y.). […] The final substrate concentrations for all assays were at the Km for the respective enzymes. Changes in fluorescence (excitation at 380 nm and emission at 460 nm) were measured at room temperature over time in a Biotek Synergy 2 plate reader (Winnoski, Vt.). Using GraphPad Prism version 6.04 software program, (GraphPad Software, San Diego, Calif., www.graphpad.com), a four parameter curve fit was used to determine the inhibitor IC50s from a plot of the mean reaction velocity versus the inhibitor concentration. The IC50 values represent the average of three separate experimental determinations.

[2] = molecular target: T2, hepsin (Homo sapiens, UniProt P05981); assay: P4-P2 substrate specificity using HyCoSuL, hepsin; set-up: concentration or dose not given beside the values; settings: HyCoSuL substrate library; for P2 Position % Activity Hepsin: amino acid fixed at P2 position; for P3 Position % Activity Hepsin: amino acid fixed at P3 position; for P4 Position % Activity Hepsin: amino acid fixed at P4 position
T2 construct: purchased R&D Systems 4776-SE-010
T2 sequence (P05981 163-417 limits assumed): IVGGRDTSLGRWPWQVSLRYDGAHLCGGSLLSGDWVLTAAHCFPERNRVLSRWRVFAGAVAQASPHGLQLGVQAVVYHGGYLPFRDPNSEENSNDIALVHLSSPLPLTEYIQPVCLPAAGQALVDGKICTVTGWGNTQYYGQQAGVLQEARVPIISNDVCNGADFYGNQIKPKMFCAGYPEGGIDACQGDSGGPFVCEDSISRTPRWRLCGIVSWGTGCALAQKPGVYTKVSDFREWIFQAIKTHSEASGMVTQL
T2 sequence (P05981 45-162 partner limits assumed): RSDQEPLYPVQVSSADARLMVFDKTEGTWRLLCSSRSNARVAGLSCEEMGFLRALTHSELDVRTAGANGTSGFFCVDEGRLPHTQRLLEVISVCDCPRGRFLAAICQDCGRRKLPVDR
Protocol: (§1) Each of the P4, P3, and P2 sublibraries were screened at the 100 μM concentration with hepsin either HGFA in a 100 μL final volume per well (99 μL of protease in buffer+1 μL of 10 mM substrates mixture). The total time of the assay was 30 minutes, however only linear portions of the progress curve (5-15 minutes) were used for velocity (RFU/s) calculations. Each sublibrary screening was repeated at least 3-times and the average value calculated from each measurement was used to create the substrate specificity matrix—the best recognized amino acid in each position was set to 100%, and other amino acids were adjusted accordingly.
Recombinant human hepsin (10 μg in 20 uL, 4776-SE-010, R&D Systems) was added to the 100 μL of activation buffer (0.1 M Tris, 0.15 M NaCl, 0.01 M CaCl2, 0.05% TRITON-X, pH=8.0) and incubated at 37° C. for 24 hours (hepsin concentration in activation buffer 2 μM). Once activated hepsin was diluted in assay buffer (0.05 M Tris, pH=9.0) to the final concentration of 4 nM and incubated at 37° C. for 15 minutes before added to a substrate.

[3] = molecular target: T3, HGFA (Homo sapiens, UniProt Q04756); assay: P4-P2 substrate specificity using HyCoSuL, HGFA; set-up: P3 Position % Activity HGFA / P2 Position % Activity HGFA: concentration or dose not given beside the values; P4 Position % Activity HGFA: tested at 100 µM; settings: HyCoSuL substrate library; for P2 Position % Activity HGFA: amino acid fixed at P2 position; for P3 Position % Activity HGFA: amino acid fixed at P3 position; for P4 Position % Activity HGFA: amino acid fixed at P4 position
T3 sequence (Q04756 408-655 limits assumed): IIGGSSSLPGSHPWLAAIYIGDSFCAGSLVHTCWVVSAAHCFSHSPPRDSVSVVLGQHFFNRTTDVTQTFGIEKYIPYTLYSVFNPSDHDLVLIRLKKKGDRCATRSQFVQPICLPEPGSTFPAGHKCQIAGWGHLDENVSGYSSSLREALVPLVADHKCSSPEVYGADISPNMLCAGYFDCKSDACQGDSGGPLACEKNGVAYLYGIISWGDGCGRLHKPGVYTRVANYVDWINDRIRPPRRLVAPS
T3 sequence (Q04756 373-407 partner limits assumed): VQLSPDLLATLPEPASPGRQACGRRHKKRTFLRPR
Protocol: as §1
HFGA enzyme was diluted in the assay buffer (0.15 M NaCl, 0.025 M Tris, 0.005 M CaCl2, pH=8.0) to the final concentration of 10-20 nM (depending of sublibrary) and incubated at 25° C. for 30 minutes before added to a substrate.

Compound | Ki ([1]; Table 6.1, Fluorogenic Assay) | other results
N=C(N)NCCC[C@H](NC(=O)[C@H](Cc1ccccc1)NC(=O)[C@@H](N)Cc1c[nH]c2ccccc12)C(=O)c1nc2ccccc2s1 [Compound 1-13A1, H-WFR-kbt] | 5.68 µM | 
CC(C)C[C@H](NC(=O)[C@H](Cc1c[nH]c2ccccc12)NC(=O)[C@@H](N)Cc1cncn1COCc1ccccc1)C(=O)N[C@@H](CCCNC(=N)N)C(=O)c1nc2ccccc2s1 [Compound 1-54A1, H-His(Bom)WLR-kbt] | 3.71 µM | 
CC(C)C[C@H](NC(=O)[C@H](N)Cc1c[nH]c2ccccc12)C(=O)N[C@@H](CCCNC(=N)N)C(=O)c1nc2ccc(C(=O)O)cc2s1 [Compound 1-57A1, H-dWLR-kbt-COOH] | 0.346 µM | 
CC(C)C[C@H](NC(=O)[C@H](CCCNC(=N)N)NC(=O)[C@H](CCCCN)NC(=O)CCCCC[N+]1=C(/C=C/C=C/C=C2/N(C)c3ccc4ccccc4c3C2(C)C)C(C)(C)c2c1ccc1ccccc21)C(=O)N[C@@H](CCCNC(=N)N)C(=O)c1nc2ccccc2s1 [Compound 1178-2, Cy5.5-KRLR(SEQ ID NO: 8)-kbt] | 0.608 µM | 
N=C(N)NCCC[C@H](NC(=O)[C@@H]1CC(=O)NCCCC[C@H](N)C(=O)N[C@@H](CCC(N)=O)C(=O)N1)C(=O)N[C@@H](CCCNC(=N)N)C(=O)c1nccs1 [Compound 7074, (2S,5S,13S)-13-amino-2-(3-amino-3-oxopropyl)-N—((S)-5-guanidino-1-(((S)-5-guanidino-1-oxo-1-(thiazol-2-yl)pentan-2-yl)amino)-1-oxopentan-2-yl)-3,7,14-trioxo-1,4,8-triazacyclotetradecane-5-carboxamide] (H-KQDR-X2; lactam 1-3) |  | Ki ([1]; Table 7.1, first HGFA column): 5.94 µM; Ki ([1]; Table 7.1, second column headed HGFA): 0.00155 µM
N=C(N)NCCC[C@H](NC(=O)[C@H](CC(N)=O)NC(=O)OCC1c2ccccc2-c2ccccc21)C(=O)c1nc2ccccc2s1 [Compound 7185-3, Fmoc-NR-kbt] | > 20 µM | 
N=C(N)NCCC[C@H](NC(=O)[C@H](CCC(=O)O)NC(=O)OCC1c2ccccc2-c2ccccc21)C(=O)c1nc2ccccc2s1 [Compound 7185-7, Fmoc-ER-kbt] | > 20 µM | 
N=C(N)NCCC[C@H](NC(=O)[C@H](Cc1cnc[nH]1)NC(=O)OCC1c2ccccc2-c2ccccc21)C(=O)c1nc2ccccc2s1 [Compound 7185-9, Fmoc-HR-kbt] | 6.36 µM | 
N=C(N)NCCC[C@H](NC(=O)[C@H](CCCCN)NC(=O)OCC1c2ccccc2-c2ccccc21)C(=O)c1nc2ccccc2s1 [Compound 7185-12, Fmoc-KR-kbt] | > 20 µM | 
N=C(N)NCCC[C@H](NC(=O)[C@H](CO)NC(=O)OCC1c2ccccc2-c2ccccc21)C(=O)c1nc2ccccc2s1 [Compound 7187-16, Fmoc-SR-kbt] | > 20 µM | 
D-Arg |  | P2 Position % Activity Hepsin [2]: 0.00%; P3 Position % Activity Hepsin [2]: 66.08%; P4 Position % Activity Hepsin [2]: 44.37%; P2 Position % Activity HGFA [3]: 0.00%; P3 Position % Activity HGFA [3]: 29.10%; P4 Position % Activity HGFA [3]: 23.20%
D-His |  | P2 Position % Activity Hepsin [2]: 0.00%; P3 Position % Activity Hepsin [2]: 40.09%; P4 Position % Activity Hepsin [2]: 19.33%; P2 Position % Activity HGFA [3]: 0.00%; P3 Position % Activity HGFA [3]: 11.09%; P4 Position % Activity HGFA [3]: 7.79%

Continued, in another order:

Ki ([1]; Table 6.1, Fluorogenic Assay) | Compound | other results
0.128 µM | CC(C)C[C@H](NC(=O)[C@H](N)Cc1c[nH]c2ccccc12)C(=O)N[C@@H](CCCNC(=N)N)C(=O)c1nc2ccccc2s1 [Compound 1-15A1, H-dWLR-kbt] | 
2.25 µM | N=C(N)NCCC[C@H](NC(=O)[C@H](Cc1ccccc1)NC(=O)[C@H](N)Cc1c[nH]c2ccccc12)C(=O)c1nc2ccccc2s1 [Compound 1-18A1, H-dWFR-kbt] | 
1.38 µM | CC(C)C[C@H](NC(=O)[C@@H](N)Cc1c[nH]c2ccccc12)C(=O)N[C@@H](CCCNC(=N)N)C(=O)c1nc2ccc(C(=O)O)cc2s1 [Compound 1-56A1, H-WLR-kbt-COOH] | 
0.0341 µM | CC(C)C[C@H](NC(=O)[C@H](CCCNC(=N)N)NC(=O)[C@H](CCCCN)NC(=O)CCCCC[N+]1=C(/C=C/C=C/C=C2/N(C)c3ccc4ccccc4c3C2(C)C)C(C)(C)c2c1ccc1ccccc21)C(=O)N[C@@H](CCCNC(=N)N)C(=O)CCl [Compound 1179, Cy5.5-KRLR(SEQ ID NO: 8)-cmk] | 
> 20 µM | N=C(N)NCCC[C@H](NC(=O)[C@H](CC(=O)O)NC(=O)OCC1c2ccccc2-c2ccccc21)C(=O)c1nc2ccccc2s1 [Compound 7185-4, Fmoc-DR-kbt] | 
6.47 µM | CC[C@H](C)[C@H](NC(=O)OCC1c2ccccc2-c2ccccc21)C(=O)N[C@@H](CCCNC(=N)N)C(=O)c1nc2ccccc2s1 [Compound 7185-10, Fmoc-IR-kbt] | 
> 20 µM | N=C(N)NCCC[C@H](NC(=O)[C@@H]1CCCN1C(=O)OCC1c2ccccc2-c2ccccc21)C(=O)c1nc2ccccc2s1 [Compound 7187-15, Fmoc-PR-kbt] | 
> 20 µM | C[C@@H](O)[C@H](NC(=O)OCC1c2ccccc2-c2ccccc21)C(=O)N[C@@H](CCCNC(=N)N)C(=O)c1nc2ccccc2s1 [Compound 7188-17, Fmoc-TR-kbt] | 
